Test results reported in patent US20140128402A1, “PHARMACEUTICAL COMBINATION” (IPCA Laboratories Limited, priority 2011, published 2014).

Key:
Format in all cases: in vivo, Wistar rats
[1] = tested on: STZ-induced diabetic rats; experiment: Study No 1: biochemical parameters in STZ-induced diabetic rats; details: after 21 days
Procedure: (§1) In this experiment 48 Wistar rats weighing 130-150 g of either sex were divided randomly into 8 groups consisting of 6 rats each. The study drugs suspended in vehicle [0.1% w/v suspension of Tween 80 and carboxymethylcellulose (CMC) in water] were administered for orally for 21 days. Group 1 (normal vehicle control) consisted of normal rats that neither received streptozotocin nor any test drug; Group 2 served as streptozotocin induced diabetic control (Diabetes was induced in rats by single administration of streptozotocin (60 mg/kg/i.p) dissolved in 0.1 M-citrate buffer, pH 4.5). Forty-eight hours later, blood samples were collected and glucose levels were determined to confirm the development of diabetes. […] Group 3 was diabetic rats treated with dose equivalent to human therapeutic dose of sitagliptin (STG) (11 mg/kg); Group 4 was diabetic rats treated with dose equivalent to human therapeutic dose of Hydroxychloroquine (HCQ) (46 mg/kg), Group 5 was diabetic rats treated with combination of HCQ 46 mg/kg and STG11 mg/kg; […] For other biochemical parameters i.e. […] Other parameters like body weight, food intake and water intake were evaluated weekly till day 21st.

[2] = tested on: STZ-induced diabetic rats; experiment: Study No 2: biochemical parameters in STZ-induced diabetic rats
[3] = tested on: STZ-induced diabetic rats; experiment: Study No 1: blood glucose in STZ-induced diabetic rats (HCQ with sitagliptin)
Procedure: In this experiment 48 Wistar rats weighing 130-150 g of either sex were divided randomly into 8 groups consisting of 6 rats each. The study drugs suspended in vehicle [0.1% w/v suspension of Tween 80 and carboxymethylcellulose (CMC) in water] were administered for orally for 21 days. Group 1 (normal vehicle control) consisted of normal rats that neither received streptozotocin nor any test drug; Group 2 served as streptozotocin induced diabetic control (Diabetes was induced in rats by single administration of streptozotocin (60 mg/kg/i.p) dissolved in 0.1 M-citrate buffer, pH 4.5). Forty-eight hours later, blood samples were collected and glucose levels were determined to confirm the development of diabetes.
Blood glucose level was measured in normal and experimental rats at 1st, 7th, 14th and 21st day of administration. For other biochemical parameters i.e. Insulin, HbA1c, Triglycerides, Total Cholesterol, HDL, SGOT, SGPT, Total Protein, Albumin, Creatinine and Urea Blood samples were collected 1 h after the last dose administration from 18 h fasted rats through the retro-orbital plexus under chloroform anesthesia and analyzed using autoanalyzer (Microlab 2000). Other parameters like body weight, food intake and water intake were evaluated weekly till day 21st.

[4] = tested on: STZ-induced diabetic rats; experiment: Study No 1: body weight, food intake and water intake in STZ-induced diabetic rats; details: for AVERAGE WATER INTAKE: oral
Procedure: as §1

[5] = tested on: STZ-induced diabetic rats; experiment: Study No 2: body weight, water intake and food intake in STZ-induced diabetic rats; details: for AVERAGE FOOD INTAKE / AVERAGE WATER INTAKE / Body Weight: oral
[6] = subtherapeutic dose: STG 5.5, HCQ 23, STG+HCQ 5.5+23 mg/kg/day oral
[7] = therapeutic dose: STG 11, HCQ 46, STG+HCQ 11+46 mg/kg/day oral
[8] = after 28 days, HCQ 22.5, VG 6, SG 0.3 mg/kg alone, HCQ+VG 22.5+6, HCQ+SG 22.5+0.3 mg/kg/day, oral
[9] = after 28 days, HCQ 45, VG 12, SG 0.6 mg/kg alone, HCQ+VG 45+12, HCQ+SG 45+0.6 mg/kg/day, oral
[10] = monotherapies, all the tested dose levels except HCQ (22.5 mg/kg), p≦0.05
[11] = Day 0, HCQ 22.5, VG 6, SG 0.3 mg/kg alone, HCQ+VG 22.5+6, HCQ+SG 22.5+0.3 mg/kg/day
[12] = Day 0, HCQ 45, VG 12, SG 0.6 mg/kg alone, HCQ+VG 45+12, HCQ+SG 45+0.6 mg/kg/day
[13] = Day 7, HCQ 22.5, VG 6, SG 0.3 mg/kg alone, HCQ+VG 22.5+6, HCQ+SG 22.5+0.3 mg/kg/day
[14] = Day 7, HCQ 45, VG 12, SG 0.6 mg/kg alone, HCQ+VG 45+12, HCQ+SG 45+0.6 mg/kg/day
[15] = Day 14, HCQ 22.5, VG 6, SG 0.3 mg/kg alone, HCQ+VG 22.5+6, HCQ+SG 22.5+0.3 mg/kg/day
[16] = Day 14, HCQ 45, VG 12, SG 0.6 mg/kg alone, HCQ+VG 45+12, HCQ+SG 45+0.6 mg/kg/day
[17] = Day 21, HCQ 22.5, VG 6, SG 0.3 mg/kg alone, HCQ+VG 22.5+6, HCQ+SG 22.5+0.3 mg/kg/day
[18] = Day 21, HCQ 45, VG 12, SG 0.6 mg/kg alone, HCQ+VG 45+12, HCQ+SG 45+0.6 mg/kg/day
[19] = Day 28, HCQ 22.5, VG 6, SG 0.3 mg/kg alone, HCQ+VG 22.5+6, HCQ+SG 22.5+0.3 mg/kg/day
[20] = Day 28, HCQ 45, VG 12, SG 0.6 mg/kg alone, HCQ+VG 45+12, HCQ+SG 45+0.6 mg/kg/day

## CCN(CCO)CCCC(C)Nc1ccnc2cc(Cl)ccc12 (centres unmarked) [HCQ, Hydroxychloroquine]
[1]; [6]
  Creatinine: 1.79
  HDL-C: 24.99 mg/dL
  HbA1c: 5.30
  Insulin (serum): 4.71
  SGOT: 57.29
  SGPT: 58.12
  TC: 166.69 mg/dL
  TG: 130.65 mg/dL
  Total Protein: 4.03 g/dL
  Urea: 46.38 mg/dL
[1]; [7]
  Albumin: 2.33 g/dL
  Creatinine: 1.72
  HDL-C: 25.07 mg/dL
  HbA1c: 4.91
  Insulin (serum): 5.97
  SGOT: 53.77
  SGPT: 55.94
  TC: 158.57 mg/dL
  TG: 124.68 mg/dL
  Total Protein: 4.12 g/dL
  Urea: 43.85 mg/dL
[2]; [8]
  HbA1c: 11.28 ± 1.08 %
  Total Protein: 6.16 ± 0.41 gm/dl
  Urea: 24.68 ± 1.96 mg/dL
[2]; [9]
  Creatinine: 1.75 ± 0.29 mg/dL
  HbA1c: 11.07 ± 1.22 %
  Total Protein: 6.35 ± 0.79 gm/dl
  Urea: 23.37 ± 2.86 mg/dL
[2]; all tested doses, 28 days, p≦0.05
  HbA1c levels as compared to diabetic control: significantly (p≦0.05) reduced
[2]; monotherapies at all doses, 28 days, p≦0.05
  total protein level as compared to the diabetic control group: significant rise
[2]; [10]
  creatinine levels as compared to diabetic control group: significant reduction
  urea levels as compared to diabetic control group: significant reduction
[3]; 1st day, subtherapeutic dose: STG 5.5, HCQ 23, STG+HCQ 5.5+23 mg/kg oral
  Plasma glucose concentration: 253.33 ± 24.86 mg/dL
[3]; 1st day, therapeutic dose: STG 11, HCQ 46, STG+HCQ 11+46 mg/kg oral
  Plasma glucose concentration: 267.83 ± 10.53 mg/dL
[3]; 7th day, subtherapeutic dose: STG 5.5, HCQ 23, STG+HCQ 5.5+23 mg/kg oral
  Plasma glucose concentration: 248.67 ± 24.63 mg/dL
[3]; 7th day, therapeutic dose: STG 11, HCQ 46, STG+HCQ 11+46 mg/kg oral
  Plasma glucose concentration: 243.83 ± 10.78 mg/dL
[3]; 14th day, subtherapeutic dose: STG 5.5, HCQ 23, STG+HCQ 5.5+23 mg/kg oral
  Plasma glucose concentration: 241.33 ± 24.73 mg/dL
[3]; 14th day, therapeutic dose: STG 11, HCQ 46, STG+HCQ 11+46 mg/kg oral, 46 mg/kg
  Plasma glucose concentration: 230.00 ± 12.96 mg/dL
[3]; 14th day, therapeutic dose: STG 11, HCQ 46, STG+HCQ 11+46 mg/kg oral, listed as hydroxychloroquine, 46 mg/kg
  Plasma glucose concentration: significant improvement
[3]; 21st day, subtherapeutic dose: STG 5.5, HCQ 23, STG+HCQ 5.5+23 mg/kg oral
  Plasma glucose concentration: 232.00 ± 19.92 mg/dL
[3]; 21st day, therapeutic dose: STG 11, HCQ 46, STG+HCQ 11+46 mg/kg oral
  Plasma glucose concentration: 207.67 ± 7.53 mg/dL
[4]; Day 1, Sub-The (subtherapeutic dose)
  AVERAGE WATER INTAKE: 31.67 mL
[4]; Day 1, The (therapeutic dose)
  AVERAGE WATER INTAKE: 30.00 mL
[4]; Day 1, subtherapeutic dose: STG 5.5, HCQ 23, STG+HCQ 5.5+23 mg/kg oral
  Body Weight: 133.33 ± 17.67 g
[4]; Day 1, subtherapeutic dose: STG 5.5, HCQ 23, combination 5.5+23 mg/kg oral
  AVERAGE FOOD INTAKE: 12.17 g
[4]; Day 1, therapeutic dose: STG 11, HCQ 46, STG+HCQ 11+46 mg/kg oral
  Body Weight: 140.33 ± 14.60 g
[4]; Day 1, therapeutic dose: STG 11, HCQ 46, combination 11+46 mg/kg oral
  AVERAGE FOOD INTAKE: 11.50 g
[4]; Day 7, Sub-The (subtherapeutic dose)
  AVERAGE WATER INTAKE: 32.17 mL
[4]; Day 7, The (therapeutic dose)
  AVERAGE WATER INTAKE: 29.17 mL
[4]; Day 7, subtherapeutic dose: STG 5.5, HCQ 23, STG+HCQ 5.5+23 mg/kg oral
  Body Weight: 133.67 ± 16.61 g
[4]; Day 7, subtherapeutic dose: STG 5.5, HCQ 23, combination 5.5+23 mg/kg oral
  AVERAGE FOOD INTAKE: 11.50 g
[4]; Day 7, therapeutic dose: STG 11, HCQ 46, STG+HCQ 11+46 mg/kg oral
  Body Weight: 141.17 ± 14.26 g
[4]; Day 7, therapeutic dose: STG 11, HCQ 46, combination 11+46 mg/kg oral
  AVERAGE FOOD INTAKE: 10.33 g
[4]; Day 14, Sub-The (subtherapeutic dose)
  AVERAGE WATER INTAKE: 32.17 mL
[4]; Day 14, The (therapeutic dose)
  AVERAGE WATER INTAKE: 28.33 mL
[4]; Day 14, subtherapeutic dose: STG 5.5, HCQ 23, STG+HCQ 5.5+23 mg/kg oral
  Body Weight: 135.17 ± 16.29 g
[4]; Day 14, subtherapeutic dose: STG 5.5, HCQ 23, combination 5.5+23 mg/kg oral
  AVERAGE FOOD INTAKE: 11.83 g
[4]; Day 14, therapeutic dose: STG 11, HCQ 46, STG+HCQ 11+46 mg/kg oral
  Body Weight: 142.67 ± 13.52 g
[4]; Day 14, therapeutic dose: STG 11, HCQ 46, combination 11+46 mg/kg oral
  AVERAGE FOOD INTAKE: 8.67 g
[4]; Day 21, Sub-The (subtherapeutic dose)
  AVERAGE WATER INTAKE: 31.83 mL
[4]; Day 21, The (therapeutic dose)
  AVERAGE WATER INTAKE: 28.83 mL
[4]; Day 21, subtherapeutic dose: STG 5.5, HCQ 23, STG+HCQ 5.5+23 mg/kg oral
  Body Weight: 137.00 ± 15.75 g
[4]; Day 21, subtherapeutic dose: STG 5.5, HCQ 23, combination 5.5+23 mg/kg oral
  AVERAGE FOOD INTAKE: 11.67 g
[4]; Day 21, therapeutic dose: STG 11, HCQ 46, combination 11+46 mg/kg oral
  AVERAGE FOOD INTAKE: 8.33 g
[5]; [11]
  AVERAGE FOOD INTAKE: 11.45 g
  AVERAGE WATER INTAKE: 25.05 mL
  Body Weight: 199.83 ± 17.7 g
[5]; [12]
  AVERAGE FOOD INTAKE: 11.67 g
  AVERAGE WATER INTAKE: 23.88 mL
  Body Weight: 198 ± 11.03 g
[5]; [13]
  AVERAGE FOOD INTAKE: 13.35 g
  AVERAGE WATER INTAKE: 24.11 mL
  Body Weight: 190.67 ± 11.41 g
[5]; [14]
  AVERAGE FOOD INTAKE: 13.39 g
  AVERAGE WATER INTAKE: 22.41 mL
  Body Weight: 184.17 ± 9.99 g
[5]; [15]
  AVERAGE FOOD INTAKE: 11.95 g
  AVERAGE WATER INTAKE: 23.29 mL
  Body Weight: 196.17 ± 10.93 g
[5]; [16]
  AVERAGE FOOD INTAKE: 12.05 g
  AVERAGE WATER INTAKE: 21.55 mL
  Body Weight: 190.67 ± 9.56 g
[5]; [17]
  AVERAGE FOOD INTAKE: 13.00 g
  AVERAGE WATER INTAKE: 26.34 mL
  Body Weight: 199.67 ± 10.52 g
[5]; [18]
  AVERAGE FOOD INTAKE: 12.75 g
  AVERAGE WATER INTAKE: 26.22 mL
  Body Weight: 194.67 ± 9.52 g
[5]; [19]
  AVERAGE FOOD INTAKE: 14.11 g
  AVERAGE WATER INTAKE: 25.44 mL
  Body Weight: 201.17 ± 8.7 g
[5]; [20]
  AVERAGE FOOD INTAKE: 14.00 g
  AVERAGE WATER INTAKE: 25.79 mL
  Body Weight: 198.17 ± 9.15 g
[5]; monotherapies, p≦0.05
  body weight as compared to diabetic control group: significant increase
